Patent US5223527A, “Isatineoxime derivatives and their use” (NeuroSearch A/S, priority 1992, dated 1993)
Read-outs that look alike come from different tables or passages of the source.

Assays:
[1] = tested on: AMPA-induced clonic seizures in NMRI mice; assay: AMPA-induced clonic seizures (AMPA seizure test); assay type: in vivo; details: Mus musculus, female NMRI mice, dose inhibiting 50% of the mice from having clonic seizures
Method: AMPA given icv (intracerebroventricular) (15 μg/kg) NMRI to mice induces clonic seizures which should be inhibited by non-NMDA receptor antagonists.
Test compound was given i.v. 5 min (or p.o. 30 min) before a 0.3 μg icv administration of AMPA to 10 female NMRI mice (weighing 24-26 g) per dose. The number of mice experiencing clonic seizures within the next 5 min was noted. An ED50 value was calculated as the dose inhibiting 50% of the mice from having clonic seizures.

AMPA binding site = assay: AMPA binding assay (T. Honore et al., Neuroscience Letters 54, 27-32 (1985))

IC50 (AMPA binding site): 2000 nM
SMILES: CN(C)S(=O)(=O)c1cc2c(c3c1CCCC3)NC(=O)C2=NO [5-N,N-dimethylsulfamoyl-1H-6,7,8,9-tetrahydrobenz[g]indole-2,3-dione-3-oxime]
ED50 ([1]; iv, 5 min, administered i.v. 5 min before 0.3 μg icv AMPA, read-out: ED50 in the AMPA seizure test, i.v.): 3 mg/kg
ED50 ([1]; po, 0.5 h, administered orally (p.o.) 30 min before 0.3 μg icv AMPA, read-out: ED50 in the AMPA seizure test, orally): 30 mg/kg
